According to the NIST ThermoML archive (doi:10.1016/j.fluid.2016.08.014):

Legend:
[1] = Liquid, Vibrating tube method
[2] = refractive index (Na D-line) (dimensionless); conditions: 298.15 K; 101.33 kPa; Liquid; Standard Abbe refractometry

CC(=O)N(C)C [N,N-dimethylethanamide]
[1]
Conditions	mass density [kg/m3]
293.15 K, 300 kPa	941
293.15 K, 2600 kPa	943
293.15 K, 5100 kPa	944
293.15 K, 10100 kPa	947
293.15 K, 14900 kPa	950
293.15 K, 20200 kPa	953
293.15 K, 25200 kPa	955
293.15 K, 30400 kPa	958
298.15 K, 101.33 kPa	936.729
303.2 K, 300 kPa	932
303.2 K, 2500 kPa	933
303.2 K, 5100 kPa	935
303.2 K, 10200 kPa	938
303.2 K, 15200 kPa	941
303.2 K, 20200 kPa	944
303.2 K, 24900 kPa	947
303.2 K, 30200 kPa	950
313.15 K, 100 kPa	922
313.15 K, 2500 kPa	924
313.15 K, 5200 kPa	926
313.15 K, 10000 kPa	929
313.15 K, 15200 kPa	932
313.15 K, 20100 kPa	935
313.15 K, 25200 kPa	938
313.15 K, 30200 kPa	941
323.15 K, 100 kPa	912
323.15 K, 2500 kPa	915
323.15 K, 5000 kPa	917
323.15 K, 10100 kPa	920
323.15 K, 15100 kPa	923
323.15 K, 20100 kPa	927
323.15 K, 25100 kPa	930
323.15 K, 30500 kPa	933
333.15 K, 100 kPa	903
333.15 K, 2500 kPa	906
333.15 K, 5100 kPa	907
333.15 K, 10100 kPa	911
333.15 K, 15100 kPa	915
333.15 K, 20200 kPa	918
333.15 K, 25000 kPa	921
333.15 K, 30100 kPa	924
343.15 K, 100 kPa	894
343.15 K, 2600 kPa	896
343.15 K, 5100 kPa	898
343.15 K, 10000 kPa	902
343.15 K, 15000 kPa	906
343.15 K, 20200 kPa	909
343.15 K, 25100 kPa	913
343.15 K, 30300 kPa	916
353.15 K, 100 kPa	885
353.15 K, 2500 kPa	887
353.15 K, 5200 kPa	889
353.15 K, 10000 kPa	893
353.15 K, 14900 kPa	897
353.15 K, 20200 kPa	901
353.15 K, 25200 kPa	905
353.15 K, 30100 kPa	908
363.15 K, 200 kPa	876
363.15 K, 2500 kPa	878
363.15 K, 5000 kPa	880
363.15 K, 10100 kPa	884
363.15 K, 15200 kPa	888
363.15 K, 20300 kPa	892
363.15 K, 25200 kPa	896
363.15 K, 30000 kPa	899
373.15 K, 100 kPa	866
373.15 K, 2600 kPa	868
373.15 K, 5100 kPa	871
373.15 K, 10000 kPa	875
373.15 K, 15100 kPa	880
373.15 K, 20300 kPa	884
373.15 K, 25100 kPa	888
373.15 K, 30600 kPa	892
383.15 K, 100 kPa	856
383.15 K, 2500 kPa	859
383.15 K, 5000 kPa	861
383.15 K, 10000 kPa	866
383.15 K, 15000 kPa	870
383.15 K, 20300 kPa	875
383.15 K, 25300 kPa	879
383.15 K, 30200 kPa	883
393.15 K, 15000 kPa	870
403.15 K, 100 kPa	837
403.15 K, 2500 kPa	840
403.15 K, 5100 kPa	843
403.15 K, 10200 kPa	848
403.15 K, 15000 kPa	853
403.15 K, 20700 kPa	858
403.15 K, 25200 kPa	862
403.15 K, 30900 kPa	867
413.15 K, 100 kPa	826
413.15 K, 2600 kPa	830
413.15 K, 5000 kPa	833
413.15 K, 10100 kPa	838
413.15 K, 15100 kPa	844
413.15 K, 20100 kPa	849
413.15 K, 25200 kPa	854
413.15 K, 30200 kPa	858

Conditions	refractive index
[2]	1.43615
